The values below come from patent publication US11564913B2, “Compositions and methods for treating cancer” (Children's Hospital Medical Center, priority 2019, dated 2023).

What is called IC50 is the concentration that inhibits the measured activity by half.

Molecules are shown by their SMILES.

Assay [1] relates to active Cdc42 in p190-BCR-ABL Ba/F3 cells. The assay is described as follows: Active GTPase pull-down (GST-PAK-GBD). The assay is classed as cell-based, murine. Particulars: 3 μM. The procedure: (§1) FIG. 13: IODVA1 decreases Rac activation and signaling. (A) Ba/F3 cells expressing p190-BCR-ABL1 were treated with IODVA1 (3 μM) as indicated and levels of active Rac (Rac-GTP) were assessed by pull-down using GST-PAK-GBD, followed by immunoblotting (upper panel) and densitometric quantification (lower panel). (B) Flow-cytometry analysis of pJNK, pS6, p4EBP, pPAK1, and pAKT of Ba/F3 cells expressing Mieg3 empty vector (light and dark blue) or p190-BCR-ABL1 (light and dark salmon) and treated with vehicle control or IODVA1 (3 μM) for 30 min. (C) Representative histogram data of the cell cycle analysis of Ba/F3 cells expressing p190-BCR-ABL and treated with vehicle control or IODVA1 (1, 3, and 10 μM) for 20 h. (D) Quantification of the average number of colonies of bone marrow wild-type (black) and Rac1^Δ/Δ+Rac2^−/− (red) p190-BCR-ABL1 leukemic cells treated with vehicle control or IODVA1 (IO1, 1 μM). ns—not significant, * p<0.05, ** p<0.01, *** p<0.001. (E) As in FIG. 13A, but cells were incubated for a fixed amount of time (1 h) at the indicated IODVA1 concentrations. (F) Ba/F3 cells expressing p190-BCR-ABL1 were treated with IODVA1 (3 μM) and lysed at the indicated times. Cell lysates were separated on SDS-PAGE and immunoblotted for pPAK(T423), pBAD(S136), and BAD. (G) Ba/F3 cells expressing p190-BCR-ABL1 were treated with IODVA1 (3 μM) and levels of active Cdc42 (Cdc42-GTP) and Rho (Rho-GTP) were assessed by pull-down at the indicated times using GST-PAK-GBD and GST-Rhotekin respectively, followed by immunoblotting (left panel) and densitometric quantification (right panel). (H) Morphology of GFP^+ leukemic colonies (left panel). […]
(§2) Having shown that IODVA1 prevents formation of F-actin suprastructures, such as lamellipodia and circular dorsal ruffles, within minutes of cell incubation (FIGS. 5A-5B and Gasilina et al., 2020) we focused on Rac. […] We thus tested if IODVA1 inhibits Rac activation and measured levels of Rac-GTP during treatment using PAK-GBD (GTPase-binding domain). […]

For assay [2], the system named is active Rac (Rac-GTP) in p190-BCR-ABL Ba/F3 cells. In words: Active GTPase pull-down (GST-PAK-GBD). The assay is classed as cell-based, murine. On the procedure: as §1, §2

For `OC1(c2ccccn2)N=C(Nc2nc3ccccc3[nH]2)N=C1c1ccccn1` (stereo not drawn) [IODVA1, (Z)-2-((1H-benzo[d]imidazol-2-yl)imino)-4,5-di(pyridin-2-yl)-2,5-dihydro-1H-imidazol-5-ol], in assay [1], the “effect on active Cdc42” value is on record as “less effective”. For the same molecule, in assay [2] (3 μM, 10-15 minutes post incubation), the “decrease in the levels of active Rac” value is 70%. Moreover, the 50% inhibitory concentration (IC50) in assay [2] (Mus musculus, BaF3, 1 h, read-out: IC50, Rac activation) came out at 1 µM.
